In US20070254939A1, “Formulations Containing Amide Derivatives of Carboxylic Acid NSAIDS for Topical Administration to the Eye” (ALCON, INC., priority 2006, published 2007):

System: mitochondria prepared from the livers of male Sprague Dawley rats
Experiment: in vitro mitochondrial swelling assay (light scattering at 540 nm)
Format: biochemical, rat
Conditions: for swelling response of non-peroxide stressed (control) mitochondria: normal, unstressed mitochondria, test article 100 μM, time course over 17 minutes, FIG. 1
Procedure: To evaluate the effects of sulfite salts on carboxylic acid NSAID-induced mitochondrial swelling, the following assay was used. […] An initial low speed centrifugation (600×g for 10 minutes) was conducted to remove nuclei and cell debris. The pellet was discarded and the supernatant was centrifuged at 7,740×g for 10 minutes to obtain a crude mitochondrial pellet. […] The suspension was centrifuged at 7,740×g for 10 minutes. The mitochondrial pellet was suspended in 30 mL of ice-cold wash buffer and centrifuged at 10,100×g for 10 minutes. […] The mitochondrial suspension was placed on ice for immediate assay. An aliquot of the mitochondrial preparation was added to a 5.0 mL cuvette (1.0 cm path length) that contained 2.95 mL of iso-osmotic HEPES buffer, supplemented with sodium succinate and rotenone. An appropriate aliquote of the mitochondrial suspension was added to the cuvette and swelling was monitored by light scattering at 540 nm for a period of 17 minutes. When drug effects were examined, mitochondria were initially exposed for a period of one minute to the test article before the addition of either buffer, t-BOOH (150 μM) or sodium sulfite (300 μM).

| SMILES | effect of sulfite salt on NSAID-induced swelling of peroxide-stressed mitochondria (t-BOOH 150 μM, sodium sulfite 300 μM with 60 μM amfenac or 60 μM bromfenac, FIG. 3) | swelling response of non-peroxide stressed (control) mitochondria | swelling response of t-BOOH-stressed mitochondria (t-BOOH 150 μM, diclofenac 30, 100 or 300 μM, FIG. 2) |
| --- | --- | --- | --- |
| O=S([O-])[O-].[Na+].[Na+] [sodium sulfite] | mitochondrial swelling is prevented | – | – |
| CC(C)Cc1ccc(C(C)C(=O)O)cc1 (stereo not drawn) [ibuprofen] | – | do not affect swelling | – |
| O=C(O)Cc1ccccc1Nc1c(Cl)cccc1Cl [diclofenac] | – | do not affect swelling | promote the swelling of mitochondria |
| Nc1c(CC(=O)O)cccc1C(=O)c1ccc(Br)cc1 [bromfenac] | – | do not affect swelling | – |
| Nc1c(CC(=O)O)cccc1C(=O)c1ccccc1 [amfenac] | – | do not affect swelling | – |
